“And” between values parts separate entries of the source, which are not always exact repeats. Equal values may be shown once.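 Following 48 hours of exposure in 96-well plates, responses at five concentrations were used to interpolate endpoints linearly. The concentration for full growth arrest is given as TGI.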
How the values were obtained:
Test in all cases: NCI-60 cell line screen, 48 h
[1] = system: HCT-116 colon
[2] = system: HOP-62 NSCLC
[3] = system: IGROV1 ovarian
[4] = system: NCI-H460 lung
[5] = system: OVCAR-4 ovarian
[6] = system: SF-268 CNS
[7] = system: SK-MEL-2 melanoma
[8] = system: SW-620 colon
[9] = system: UACC-62 melanoma
[10] = system: HT29 colon

COC(=O)NN(C(=O)OC)c1c(-c2ccccc2)nc(SC)n1N showed a TGI [1] of over 100 µM, a TGI [2] of over 100 µM and a TGI [3] of over 100 µM. For the same molecule, the TGI [4] was over 100 µM, the TGI [5] was over 100 µM and the TGI [6] was over 100 µM. The TGI [7] was over 100 µM, the TGI [8] was over 100 µM and the TGI [9] was over 100 µM.

For C=C1[C@@H](O)C[C@@]23CC[C@@H]4[C@@]5(C)CC[C@@H](OC(C)=O)C(C)(C)[C@@H]5C[C@@H](OC5OC(COC(C)=O)C(O)C(O)C5O)[C@@]4(C)C2=CC[C@H]3[C@H]1C (stereo partly drawn), the TGI [1] was 10.7 µM, the TGI [2] was 25.8 µM and the TGI [10] was 4.75 µM. The TGI [3] was 15 µM, the TGI [4] was 17.2 µM and the TGI [5] was 21 µM. For the same molecule, the TGI [6] was 19 µM, the TGI [7] was 7.39 µM and the TGI [8] was 21.7 µM. For the same molecule, the TGI [9] was 20.5 µM.

COc1cc2c(cc1OC)C1c3ccccc3CCN1CC2 (stereo not drawn) was tested, and the TGI [1] was over 100 µM, the TGI [2] was over 100 µM and the TGI [10] was over 100 µM. It also gave a TGI [3] of over 100 µM, a TGI [4] of over 100 µM and a TGI [5] of over 100 µM. For the same molecule, the TGI [6] was over 100 µM, the TGI [7] was over 100 µM and the TGI [8] was over 100 µM. It also gave a TGI [9] of over 100 µM.

For C[n+]1c(-c2ccccc2)cc2/c(=C\c3ccc([N+](=O)[O-])cc3)c3ccccc3n21, the TGI [1] was 14 µM, the TGI [2] was 19.3 µM and the TGI [10] was over 32.6 µM. It also gave a TGI [3] of 9.53 µM, a TGI [4] of over 100 µM and a TGI [5] of over 100 µM. It also gave a TGI [6] of 29.1 µM, a TGI [7] of 10.9 µM and a TGI [8] of 29 µM. The TGI [9] was over 73.6 µM.

Molecule COc1cc(C2c3cc4c(cc3OC(NN=C(C)C)C2C)OCO4)cc(OC)c1O (stereo not drawn) has a TGI [1] of over 100 µM, a TGI [10] of over 100 µM and a TGI [3] of over 100 µM. The TGI [5] was over 100 µM, the TGI [6] was over 100 µM and the TGI [7] was 55.9 µM. It also gave a TGI [8] of over 100 µM and a TGI [9] of over 100 µM.

CCOC(=O)C1=C(C(C)=O)CSC(c2ccccc2)=N1 gave a TGI [1] of over 100 µM, a TGI [10] of over 100 µM and a TGI [3] of over 100 µM. For the same molecule, the TGI [4] was over 100 µM, the TGI [5] was over 100 µM and the TGI [6] was over 100 µM. The TGI [7] was over 100 µM, the TGI [8] was over 100 µM and the TGI [9] was over 100 µM.

C=C1C(=O)OC2/C=C(\CO)C(OC(C)=O)CC(O)/C(C)=C/C(OC(=O)C(C)CC)C12 (stereo not drawn) was tested, and the TGI [1] was 27.6 µM and 42.5 µM, the TGI [2] was over 100 µM and the TGI [10] was 46.6 µM and 35.5 µM. For the same molecule, the TGI [3] was over 100 µM, the TGI [4] was 63.6 µM and > 100 µM and the TGI [5] was 32.5 µM and > 100 µM. The TGI [6] was 73.3 µM and 49.9 µM, the TGI [7] was 32.3 µM and 33.1 µM and the TGI [8] was 24.4 µM and 78 µM. The TGI [9] was 32.3 µM and 38 µM.

In the case of CC1(C)O[C@@H]2COC(=O)[C@@H]2O1, the TGI [1] is reported as over 100 µM, the TGI [10] is reported as over 100 µM and the TGI [3] is reported as over 100 µM. For the same molecule, the TGI [4] was over 100 µM, the TGI [5] was over 100 µM and the TGI [6] was over 100 µM. The TGI [7] was over 100 µM, the TGI [8] was over 100 µM and the TGI [9] was over 100 µM.

CC(=O)N/N=C1/NN(C(C)=O)C2(S1)C(=O)Nc1ccc(Br)cc12 (stereo not drawn) showed a TGI [1] of over 100 µM, a TGI [2] of over 100 µM and a TGI [10] of over 100 µM. It also gave a TGI [3] of over 100 µM, a TGI [4] of over 100 µM and a TGI [5] of over 100 µM. It also gave a TGI [6] of over 100 µM, a TGI [7] of over 100 µM and a TGI [9] of over 100 µM.

In the case of N#Cc1nc(-c2cc([N+](=O)[O-])cc([N+](=O)[O-])c2)oc1N, the TGI [1] is reported as over 10 µM, the TGI [2] is reported as over 10 µM and the TGI [10] is reported as over 10 µM. The TGI [3] was over 10 µM, the TGI [4] was over 10 µM and the TGI [5] was over 10 µM. It also gave a TGI [6] of over 10 µM, a TGI [8] of over 10 µM and a TGI [9] of over 10 µM.

Molecule O=C1CCSSCCC(=O)NCCN1 has a TGI [1] of over 100 µM, a TGI [2] of over 100 µM and a TGI [10] of over 100 µM. For the same molecule, the TGI [3] was over 100 µM, the TGI [4] was over 100 µM and the TGI [5] was over 100 µM. For the same molecule, the TGI [6] was over 100 µM, the TGI [7] was over 100 µM and the TGI [8] was over 100 µM. For the same molecule, the TGI [9] was over 100 µM.

Source: PubChem BioAssay (NCI)
